In one data set the test system is S. aureus (209P strain). Briefly: Antibacterial activity in liquid medium. The format is cell-based, Staphylococcus aureus. Particulars: for Peptide Activity in Liquid Medium after 15 h of Incubation (Gentamicin as Positive Control): 209P strain, Mueller–Hinton broth, 37 °C, 2% DMSO; for Concentrations at which the peptide showed an antimicrobial effect (comparable to gentamicin): 15 h incubation, tested 0.75–12 µM, gentamicin 200 µM, Figures 3, 4. The source says:
(§1) Two S. aureus strains were used: a susceptible strain 209P and a clinical isolate strain 129B (resistant to antibiotics: benzylpenicillin, clindamycin, erythromycin, oxacillin, sulfamethoxazole, and vancomycin). Two MRSA strains were included: a susceptible strain ATCC 43300 (resistant to antibiotics: methicillin, oxacillin (beta-lactam antibiotics), ampicillin (https://www.atcc.org/products/43300 (accessed on 11 November 2023)) and a clinical isolate strain SA 180 (resistant to antibiotics: benzylpenicillin and oxacillin (beta-lactam antibiotics), ciprofloxacin, clindamycin, erythromycin, levomycetin, sulfamethoxazole, and vancomycin). One B. cereus was used: a susceptible strain, IP 5832. Two P. aeruginosa strains were included: a susceptible strain, ATCC 28753, and a resistant strain, 2943. Two E. coli strains were used: a susceptible strain, K12, and a susceptible strain, MG1655.
(§2) Determination of the growth for the bacteria S. aureus strain 209P, MRSA strain ATCC 43300, B. cereus strain IP 5832, P. aeruginosa strain ATCC 28753, and E. coli strain K12 was performed using Mueller–Hinton Broth (MHB) (Sigma-Aldrich, St. Louis, MO, USA). Bacteria of S. aureus (strain 129B) and MRSA (strain SA 180-F) were grown on the brain-heart infusion (BHI) medium, and bacteria of P. aeruginosa (strain 2943) and E. coli (strain MG1655) were grown on the LB medium. The preparation and co-incubation of peptides with bacteria were carried out as described previously. The samples were grown at 37 °C.

The subject of the next data set is MRSA (ATCC 43300 strain). As to the kind of experiment: Antibacterial activity in liquid medium. Particulars: for Concentrations at which the peptide showed an antimicrobial effect (comparable to gentamicin): 15 h incubation, tested 0.75–12 µM, gentamicin 200 µM, Figures 3, 4; for Peptide Activity in Liquid Medium after 15 h of Incubation (Gentamicin as Positive Control): ATCC 43300 strain, Mueller–Hinton broth, 37 °C, 2% DMSO. Format: cell-based, Methicillin-resistant Staphylococcus aureus.
Text: as §1, §2

Data set [1] deals with P. aeruginosa (ATCC 28753 strain). As to the kind of experiment: Antibacterial activity in liquid medium. The format is cell-based, Pseudomonas aeruginosa. Particulars: for Concentrations at which the peptide showed an antimicrobial effect (comparable to gentamicin): 15 h incubation, tested 0.75–12 µM, gentamicin 200 µM, Figures 3, 4; for Peptide Activity in Liquid Medium after 15 h of Incubation (Gentamicin as Positive Control): ATCC 28753, Mueller–Hinton broth, 37 °C, 2% DMSO.
Text: as §1, §2

The test system of the next data set is E. coli (K12 strain). As to the kind of experiment: Antibacterial activity in liquid medium. The format is cell-based, Escherichia coli. Particulars: for Peptide Activity in Liquid Medium after 15 h of Incubation (Gentamicin as Positive Control): K12 strain, Mueller–Hinton broth, 37 °C, 2% DMSO; for Concentrations at which the peptide showed an antimicrobial effect (comparable to gentamicin): 15 h incubation, tested 0.75–12 µM, gentamicin 200 µM, Figures 3, 4.
Text: as §1, §2

A further data set concerns E. coli (MG1655 strain). As to the kind of experiment: Antibacterial activity in liquid medium. The format is cell-based, Escherichia coli. Particulars: LB medium, 37 °C.
Text: as §1, §2

The subject of data set [2] is B. cereus (IP 5832 strain). As to the kind of experiment: Antibacterial activity in liquid medium. The format is cell-based, Bacillus cereus. As to conditions: 15 h incubation; tested 0.75–12 µM; gentamicin 200 µM; Figures 3, 4.
Text: as §1, §2

In another data set the test system is S. aureus (129B strain). As to the kind of experiment: Antibacterial activity in liquid medium, clinical isolate. The format is cell-based, Staphylococcus aureus. As to conditions: BHI medium, 37 °C.
Text: as §1, §2

Another data set deals with MRSA (SA 180-F strain). The data set is described as above. The format is cell-based, Methicillin-resistant Staphylococcus aureus. As to conditions: BHI medium, 37 °C.
Text: as §1, §2

Data set [3] has as its system P. aeruginosa (2943 strain). Briefly: Antibacterial activity in liquid medium, resistant strain. Format: cell-based, Pseudomonas aeruginosa. As to conditions: LB medium, 37 °C.
Text: as §1, §2

Data set [4] relates to human skin fibroblasts. As to the kind of experiment: Cytotoxic effect, calcein AM / propidium iodide flow cytometry. Particulars: 50 µg/mL, with and without pre-incubation; 96 h. The format is cell-based. The protocol:
(§3) The culture of normal human fibroblasts was obtained from the skin areas of the inner surface of the forearm of healthy volunteers after their consent using the explant method. All volunteers gave their informed consent for inclusion before they participated in the study. The study was conducted in accordance with the Declaration of Helsinki, and the protocol was approved by the Ethics Committee of ITEB RAS No. 43/2023. The culture of normal human fibroblasts was obtained from the skin areas of the inner surface of the forearm using the explant method. A 5 × 5 mm skin explant was washed for several minutes in phosphate buffer containing 400 μg/mL gentamicin sulfate. […] After the release of cells from the fragments, the cells were detached from the surface of the culture plastic, and the number of cells was determined. […]
The number of living and dead cells was determined by staining cells with the fluorescent dyes calcein AM (Sigma-Aldrich, St. Louis, MO, USA) and propidium iodide (Sigma-Aldrich, St. Louis, MO, USA). […] Live and dead cells were analyzed using a BD Accuri C6 flow cytometer (BD Bioscience, San Jose, CA, USA).

For another data set, the system named is BT474 cells. Described as above. Format: cell-based, human. As to conditions: 50 µg/mL, with and without pre-incubation; 96 h. Here is the method:
(§4) BT474 human breast duct carcinoma cells were obtained from the American Collection of Type Cell Cultures (Manassas, Virginia, VA, USA). BT474 cells were cultured in DMEM medium (Sigma-Aldrich, St. Louis, MO, USA) supplemented with 10% fetal calf serum (Gibco, Waltham, MA, USA) and 40 μg/mL gentamicin sulfate (Sigma-Aldrich, St. Louis, MO, USA) at 37 °C under conditions of 5% CO2 in the air.
The number of living and dead cells was determined by staining cells with the fluorescent dyes calcein AM (Sigma-Aldrich, St. Louis, MO, USA) and propidium iodide (Sigma-Aldrich, St. Louis, MO, USA). Cells were detached from the surface of the samples using an Accutase cocktail. Cells were stained in L-15 medium with 1% fetal bovine serum containing 1 μg/mL calcein AM and 2 μg/mL propidium iodide for 25 min at 37 °C. Live and dead cells were analyzed using a BD Accuri C6 flow cytometer (BD Bioscience, San Jose, CA, USA).

Data set [5] concerns human skin fibroblasts. Briefly: Cytostatic effect, cell cycle phases and mitotic activity. The format is cell-based. As to conditions: 50 μg/mL, with and without pre-incubation. Here is the method: as §3
(§5) To determine the mitotic activity, the cells were washed in phosphate-buffered saline (300 g, 5 min) and fixed with 70% ethanol (24 h, −20 °C). Then, they were stained with bisBenzimide H 33342 fluorescent dye at a concentration of 1 μg/mL for 10 min at room temperature, and the number of mitotic cells was counted using a DM 6000 fluorescent microscope (Leica, Wetzlar, Germany). At least 500 cells were analyzed.

Another data set deals with BT-474 cells. Described as above. Format: cell-based, human. Particulars: 50 μg/mL, with and without pre-incubation. The protocol: as §4
To study the distribution of cells over the phases of the cell cycle, cells were collected, washed in phosphate-buffered saline (300 g, 5 min), and fixed with 70% ethanol (24 h, −20 °C). Staining was carried out for 15 min at 37 °C in the following medium: phosphate-buffered saline, 0.1% Triton X100, 10 μg/mL propidium iodide, and 100 μg/mL RNase (Biolot, St. Petersburg, Russia). The analysis was performed using a BD Accuri C6 flow cytometer (BD Bioscience, San Jose, CA, USA). The obtained results were processed in the ModFit LT 4.1 program.
as §5

A short description of data set [6]: Thioflavin T fluorescence assay for amyloid-like aggregates. The format is physicochemical. Particulars: 24 h, 37 °C, 450 rpm; 50 mM TrisHCl pH 7.5, 150 mM NaCl, 20% DMSO; 200 µM ThT; peptide up to 190–380 μM (1 mg/mL). The source says:
ThT, a benzothiazole dye, is known for its unique property of binding to amyloids and amyloid-like fibrils. This interaction results in a substantial increase in the fluorescence intensity of ThT, typically observed at a wavelength of around 485 nm.
The spectra of fluorescence intensity of free ThT and in solution with individual peptides were studied by us using the method of fluorescence spectroscopy as described previously.

The conditions of data set [7]: over the tested concentration range; cited from earlier work.
Description: Analysis of the cytostatic effect was performed on the basis of the distribution of cells by phases of the cell cycle and mitotic activity.

Turning to “ITDFGIFIGLGGGGSRQIKIWFQNRRMKWKK [I31K^P, Amyloidogenic fragment of S1 from P. aeruginosa + CPP2 (Antennapedia fragment), 31 a.a]”, the “Peptide Activity in Liquid Medium after 15 h of Incubation (Gentamicin as Positive Control)” value in the data set with S. aureus (209P strain) is listed as >12 µM, 209P strain; in the data set on MRSA (ATCC 43300 strain), >12 µM, ATCC 43300 strain; in [1] it was >12 µM, ATCC 28753; in the data set with E. coli (K12 strain) it was >12 µM, K12 strain. For the same sequence, the “Concentrations at which the peptide showed an antimicrobial effect (comparable to gentamicin)” value (shortened to “Concentrations”) in the data set with S. aureus (209P strain) is listed as “did not show strong effects”; in the data set with MRSA (ATCC 43300 strain), “did not show strong effects”; in data set [1] it was “not found”; in [2], 12 µM. The “Peptide Activity in Liquid Medium after 24 h of Incubation (Meropenem as a Positive Control)” value in the data set with E. coli (MG1655 strain) is >2750 µM, MG1655 strain; with S. aureus (129B strain) it was >2750 µM, 129B strain; in the data set with MRSA (SA 180-F strain), >2750 µM, SA 180-F strain; in data set [3], >2750 µM, 2943 strain. The Cytotoxic effect result in the data set with human skin fibroblasts [4] and in the data set on BT474 cells was “lacked cytotoxic effects” in each case. The “Proliferative activity (cytostatic effect)” value with human skin fibroblasts [5] and in the data set with BT-474 cells was “did not even suppress their proliferative activity” in each case.
On to RKKRRQRRRGGGGITDFGIFIGL [R23L^P], for which, in data set [6], the “ThT fluorescence intensity at ~485 nm” value is listed as “multiple increase in the fluorescence intensity of ThT”. The “Peptide Activity in Liquid Medium after 15 h of Incubation (Gentamicin as Positive Control)” value in the data set on S. aureus (209P strain), with MRSA (ATCC 43300 strain) and in the data set on E. coli (K12 strain) was 12 µM in each case. The “Concentrations” value in the data set with S. aureus (209P strain) is 12 µM; with MRSA (ATCC 43300 strain), 12 µM; in [1], 6 to 12 µM; in the data set with E. coli (K12 strain), 12 µM; in data set [2] it was 1.5 to 12 µM. The “Peptide Activity in Liquid Medium after 24 h of Incubation (Meropenem as a Positive Control)” value in the data set on E. coli (MG1655 strain) is on record as ≥3780 µM, MG1655 strain; in the data set with S. aureus (129B strain) it was >3780 µM, 129B strain; in the data set on MRSA (SA 180-F strain), >3780 µM, SA 180-F strain; in data set [3], ≥3780 µM, 2943 strain. For the same sequence, the results for the Cytotoxic effect result (in the data set on human skin fibroblasts [4]; in the data set on BT474 cells; in data set [7]) were “lacked cytotoxic effects”, “lacked cytotoxic effects” and “not been shown to have significant effects”, respectively. Further, the “Proliferative activity (cytostatic effect)” value with human skin fibroblasts [5] and in the data set with BT-474 cells was “did not even suppress their proliferative activity” each time.
“RKKRRQRRRGGGGITDFGIFIGLGGGGSRQIKIWFQNRRMKWKK [R44K^P, CPP1 + amyloidogenic fragment of S1 from P. aeruginosa + CPP2, dihybrid peptide, 44 a.a]”: the “Peptide Activity in Liquid Medium after 15 h of Incubation (Gentamicin as Positive Control)” value in the data set on S. aureus (209P strain) is 12 µM; with MRSA (ATCC 43300 strain) it was 12 µM; in data set [1] it was 6 µM; in the data set on E. coli (K12 strain), >12 µM, K12 strain. The “Concentrations” value in the data set on S. aureus (209P strain) is 12 µM; in the data set with MRSA (ATCC 43300 strain) it was 12 µM; in [1], 6 to 12 µM; in data set [2], 3 to 12 µM. The “Peptide Activity in Liquid Medium after 24 h of Incubation (Meropenem as a Positive Control)” value in the data set on E. coli (MG1655 strain) was >1930 µM, MG1655 strain; with S. aureus (129B strain) it was >1930 µM, 129B strain; in the data set on MRSA (SA 180-F strain), >1930 µM, SA 180-F strain; in [3] it was ≥1930 µM, 2943 strain.
Consider “VTDFGVFVEIGGGGSRQIKIWFQNRRMKWKK [V31K^T]”, for which the “Peptide Activity in Liquid Medium after 15 h of Incubation (Gentamicin as Positive Control)” value in the data set on S. aureus (209P strain) is >12 µM, 209P strain; in the data set on MRSA (ATCC 43300 strain), >12 µM, ATCC 43300 strain; in [1], >12 µM, ATCC 28753; in the data set with E. coli (K12 strain), >12 µM, K12 strain. In the data set on E. coli (K12 strain), the “Concentrations” value was “no significant antimicrobial effects”. Also, the “Peptide Activity in Liquid Medium after 24 h of Incubation (Meropenem as a Positive Control)” value with E. coli (MG1655 strain) is listed as >2730 µM, MG1655 strain; with S. aureus (129B strain), >2730 µM, 129B strain; in the data set on MRSA (SA 180-F strain) it was >2730 µM, SA 180-F strain; in [3], >2730 µM, 2943 strain.

The values are drawn from publication PMC10706425, “Enhancing the Antimicrobial Properties of Peptides through Cell-Penetrating Peptide Conjugation: A Comprehensive Assessment” (International Journal of Molecular Sciences, 2023).
